Test results published in patent publication US10888864B2, “Electrochemical metabolic activity detecting device” (The Governing Council of the University of Toronto, priority 2014, dated 2021).
In brackets after ≈: the same amount, converted by molar mass.

Tests used:
E. coli (UPEC) = assay: on-chip electrochemical (resazurin) antibiotic susceptibility assay in undiluted urine; assay type: cell-based, Escherichia coli
Method: (§1) The performance of the example device for electrochemical detection in urine was investigated. Human urine (BioreclamationlVT) was centrifuged at 5000 g for 5 min to remove large particulates. E. coli and K. pneumoniae were diluted to 100 cfu/μL and spiked in the urine. Samples (200 μL) were introduced at 20 μL/min. […] Air was flushed through the device to form the wells followed by FC-40 (200 μL) (Sigma Aldrich, St. Louis, Mo.). Thus the total volume of all solutions introduced is 600 μL which requires 30 min to process at 20 μL/min. The device was incubated in a water bath at 37° C. for 1 hour. 10 minutes were required to scan the leads. Thus the total time for the assay from sample introduction to readout was 1 hour and 40 minutes.
(§2) Other studies were carried out to assess the suitability of the example device to rapidly determine the antibiotic resistance profile of bacteria in undiluted urine.
(§3) E. coli (UPEC) and K. pneumoniae present at 100 cfu/μL in undiluted urine were introduced into the example device. After capture, a culture medium, resazurin, and either ampicillin or ciprofloxacin were introduced. FIGS. 5C and 5D show the electrochemical signal obtained as a function of antibiotic concentration after a 1 hour incubation at 37° C.
As this strain produces a beta lactamase, resistance to ampicillin, a beta-lactam antibiotic is expected. […]

K. pneumoniae [1] = assay: as above; assay type: cell-based, Klebsiella pneumoniae; details: K. pneumoniae 100 cfu/μL in undiluted urine, 1 hour incubation at 37° C., FIG. 5D
Method: as §1, §2, §3
(§4) As this strain produces a beta lactamase, resistance to ampicillin, a beta-lactam antibiotic is expected.

E. coli [2] = assay: standard microdilution assay with a 24 hour incubation; assay type: cell-based, Escherichia coli; details: absorbance at 600 nm, FIG. 5A
Method: (§5) An antibiotic susceptibility microdilution assay was also performed using the example device. […] After 24 hours, the absorbance at 600 nm was measured.
as §4

K. pneumoniae [3] = assay: as above; assay type: cell-based, Klebsiella pneumoniae; details: FIG. 5B; for MIC90: Klebsiella pneumoniae, 24 hour incubation
Method: as §5, §4

K. pneumoniae [4] = assay: time required for antibiotics to hinder metabolic activity (resazurin fluorescence); assay type: cell-based, Klebsiella pneumoniae; details: K. pneumoniae 1×10^5 cfu/μL, antibiotic 100 μg/mL, LB media, 1 mM resazurin, 37° C., FIG. 16
Method: In order to choose a suitable incubation period for the susceptibility test, the time required for the antibiotics to begin inhibiting bacterial metabolic activity was investigated. […] The increase in fluorescence induced by the conversion of resazurin by metabolically active bacteria was recorded.

E. coli [5] = assay: on-chip electrochemical antibiotic susceptibility assay in unpurified urine; assay type: cell-based, Escherichia coli; details: E. coli 100 cfu/μL in undiluted unpurified urine, 10 μm pre-filter, 37° C. for 1 hour, FIG. 5E
Method: The performance of the example device was also investigated for electrochemical detection in unpurified urine. E. coli were diluted to 100 cfu/μL and spiked in the unpurified human urine (BioreclamationlVT). The spiked urine (200 μL) was passed through a 10 μm filter to remove large particulates and directly introduced at 20 μL/min into the chip. […] Air was flushed through the device to form the wells followed by FC-40 (Sigma Aldrich, St. Louis, Mo.). The device was incubated in a water bath at 37° C.
A series of experiments were also performed to determine the antibiotic susceptibility of bacteria in unpurified urine. […] Currents are normalized to the maximum value. Error bars represent standard error.
E. coli were spiked directly into undiluted and unpurified urine at 100 cfu/μL. The sample was passed through a 10 μm filter that removed large particulates while allowing bacteria to pass. FIG. 18 illustrates the effect of pre-filter size on recovery of bacteria spiked in undiluted urine. […] No appreciable signal change was found when using a blank control sample of unpurified urine (see FIG. 4, discussed above).

Compound	effect on metabolism of E. coli (electrochemical scan) (E. coli (UPEC); 1 μg/mL antibiotic, E. coli in urine at 100 CFU/μL, 1 mM resazurin, 60 min at 37° C., FIG. 19B)	electrochemical signal with increasing antibiotic concentration / susceptibility call (K. pneumoniae [1])	minimum antibiotic concentration that inhibits 90% of bacterial growth (MIC90) (E. coli [2])	susceptibility call by standard microdilution assay (K. pneumoniae [3])	MIC90 (K. pneumoniae [3]) [µg/mL]	fluorescence signal (resazurin conversion) in presence of antibiotic (K. pneumoniae [4])	antibiotic concentration at which the bacteria are susceptible (electrochemical signal) (E. coli (UPEC); E. coli (UPEC) 100 cfu/μL in undiluted urine, 1 hour incubation at 37° C., FIG. 5C)	antibiotic concentration at which E. coli are susceptible (electrochemical signal) (E. coli [5]) [µg/mL]
CC1(C)S[C@@H]2[C@H](NC(=O)[C@H](N)c3ccccc3)C(=O)N2[C@H]1C(=O)O [ampicillin]	insufficient to inhibit the metabolism	approximately constant	16 µg/mL	resistant	> 100	fluorescence increases	–	–
O=C(O)c1cn(C2CC2)c2cc(N3CCNCC3)c(F)cc2c1=O [ciprofloxacin]	–	susceptible	less than 0.1 μg/mL	susceptible	2 (≈ 6.04 µM)	–	above 1 μg/mL	≥ 1
